In paper PMC2662629 (Pharmaceutical research, 2008):
“And” between values parts separate entries of the source, which are not always exact repeats. Equal values may be shown once. “Also recorded” adds a separate entry of the source. Read-outs that look alike come from different tables or passages of the source. Values belong to the compound of their own block, whether it stands above or below them.

Experiments:
[1] = molecular target: T1, ABCG2 (Rattus norvegicus, UniProt Q80W57); assay: Bodipy FL prazosin transport assay in isolated rat brain capillaries; assay type: cell-based; details: for IC50: rat brain capillaries
T1 sequence (Q80W57 1-657): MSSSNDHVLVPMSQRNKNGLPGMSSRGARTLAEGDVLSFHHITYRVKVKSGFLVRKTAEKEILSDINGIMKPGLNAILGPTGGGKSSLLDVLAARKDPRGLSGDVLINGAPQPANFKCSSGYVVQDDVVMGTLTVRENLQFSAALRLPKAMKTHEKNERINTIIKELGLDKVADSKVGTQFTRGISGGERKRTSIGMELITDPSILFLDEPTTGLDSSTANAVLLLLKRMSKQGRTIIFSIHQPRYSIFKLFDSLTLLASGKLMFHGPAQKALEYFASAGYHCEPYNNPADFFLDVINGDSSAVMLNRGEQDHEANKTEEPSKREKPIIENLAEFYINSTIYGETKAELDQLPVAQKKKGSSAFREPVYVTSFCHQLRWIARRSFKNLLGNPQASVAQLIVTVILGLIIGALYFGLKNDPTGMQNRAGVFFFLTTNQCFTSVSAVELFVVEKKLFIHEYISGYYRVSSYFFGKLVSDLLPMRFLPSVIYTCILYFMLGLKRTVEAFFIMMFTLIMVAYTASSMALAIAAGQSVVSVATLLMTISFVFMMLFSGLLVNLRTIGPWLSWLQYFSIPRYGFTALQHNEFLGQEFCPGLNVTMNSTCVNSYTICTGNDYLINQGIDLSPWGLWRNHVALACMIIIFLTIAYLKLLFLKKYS

[2] = test system: MCF-7 cells; details: read-out: IC50 for MCF-7 cells; cited from earlier work
[3] = molecular target: T2, human ABCG2 (Homo sapiens, UniProt Q9UNQ0); assay type: binding
T2 sequence (Q9UNQ0 1-655): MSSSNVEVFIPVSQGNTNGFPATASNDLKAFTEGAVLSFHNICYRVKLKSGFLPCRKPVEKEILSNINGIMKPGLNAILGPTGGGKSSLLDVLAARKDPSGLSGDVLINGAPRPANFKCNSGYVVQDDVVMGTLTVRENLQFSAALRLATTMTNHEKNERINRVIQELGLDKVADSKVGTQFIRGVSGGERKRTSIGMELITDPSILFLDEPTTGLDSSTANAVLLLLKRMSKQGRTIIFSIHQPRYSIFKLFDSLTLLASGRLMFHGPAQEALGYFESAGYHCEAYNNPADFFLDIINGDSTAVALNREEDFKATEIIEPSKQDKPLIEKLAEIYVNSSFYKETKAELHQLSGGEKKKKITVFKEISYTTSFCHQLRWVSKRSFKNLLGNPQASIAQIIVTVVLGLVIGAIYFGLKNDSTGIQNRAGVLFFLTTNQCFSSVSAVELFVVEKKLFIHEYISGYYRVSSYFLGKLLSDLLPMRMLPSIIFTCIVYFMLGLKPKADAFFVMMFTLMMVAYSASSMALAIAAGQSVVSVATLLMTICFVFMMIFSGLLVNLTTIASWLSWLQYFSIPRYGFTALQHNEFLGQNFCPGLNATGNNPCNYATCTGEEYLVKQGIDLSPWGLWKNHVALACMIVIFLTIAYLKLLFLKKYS

[4] = test system: mouse ABCG2; assay type: in vivo, mice; details: FVB, mouse, plasma, oral, 20 mg/kg
[5] = molecular target: T3, mouse ABCG2 (Mus musculus, UniProt Q7TMS5); assay type: in vivo, mice
T3 sequence (Q7TMS5 1-657): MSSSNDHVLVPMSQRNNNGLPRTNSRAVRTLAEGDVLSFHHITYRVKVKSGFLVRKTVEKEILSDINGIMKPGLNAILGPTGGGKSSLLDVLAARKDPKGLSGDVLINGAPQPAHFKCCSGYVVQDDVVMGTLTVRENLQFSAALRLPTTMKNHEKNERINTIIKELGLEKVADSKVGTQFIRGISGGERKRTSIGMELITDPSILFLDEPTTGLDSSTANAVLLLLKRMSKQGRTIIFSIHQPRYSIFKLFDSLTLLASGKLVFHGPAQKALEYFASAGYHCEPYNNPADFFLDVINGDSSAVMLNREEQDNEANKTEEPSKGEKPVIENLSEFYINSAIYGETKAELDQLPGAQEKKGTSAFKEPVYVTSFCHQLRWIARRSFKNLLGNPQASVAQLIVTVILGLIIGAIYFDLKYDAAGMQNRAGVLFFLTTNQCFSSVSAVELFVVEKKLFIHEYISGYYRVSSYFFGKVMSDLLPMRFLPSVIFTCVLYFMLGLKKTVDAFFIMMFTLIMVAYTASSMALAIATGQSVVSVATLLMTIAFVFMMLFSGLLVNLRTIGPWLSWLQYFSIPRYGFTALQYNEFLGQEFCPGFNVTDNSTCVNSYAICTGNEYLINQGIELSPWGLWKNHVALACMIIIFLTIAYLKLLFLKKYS

[6] = test system: mouse ABCG2; assay type: in vivo, mice
[7] = clinical trials in humans; cited from earlier work
[8] = test system: pancreatic cancer; details: oral administration of 8 g curcumin daily up to 18 months; cited from earlier work

SMILES: COc1ccc2c3c([nH]c2c1)[C@H](C=C(C)C)N1C(=O)[C@@H]2CCCN2C(=O)[C@@H]1C3 [FTC, fumitremorgin C]
inhibition of the efflux of Bodipy-prazosin in brain capillaries [1]: 50%
luminal BODIPY FL prazosin fluorescence, % of control capillaries ([1]; 5 μM inhibitor, steady state): approximately 50%

SMILES: COc1cc2c(cc1OC)CN(CCc1ccc(NC(=O)c3cccc4c(=O)c5cccc(OC)c5[nH]c34)cc1)CC2 [GF120918]
IC50 [2]: 18000 nM

SMILES: COc1ccc2c3c([nH]c2c1)[C@H](CC(C)C)N1C(=O)[C@H](CCC(=O)OC(C)(C)C)NC(=O)[C@@H]1C3 [Ko143]
IC50 [2]: 19000 nM

IC50 [3]: 1020 nM
concentration at 24 h [4]: < 1 ng/mL
half-life ([5]; FVB, mouse, plasma, po): 5.02 h
half-life ([5]; FVB, mouse, plasma, po, 20 mg/kg): 1.08 h
Cmax ([5]; FVB, mouse, plasma, po, 20 mg/kg, Cmax of SASP, SASP 20 mg/kg PO, vehicle pretreatment, wild-type mice): 1230 ng/mL
SASP plasma level in abcg2-/- mice relative to abcb1a-/- and wild-type groups ([6]; 90 min after SASP 20 mg/kg PO): 10-20 fold
concentration at 90 min ([6]; FVB, mouse, plasma, oral, 20 mg/kg): ~540 ng/mL and 12400 ng/mL
SMILES: O=C(O)c1cc(/N=N/c2ccc(S(=O)(=O)Nc3ccccn3)cc2)ccc1O [SASP, Sulfasalazine]

effect of curcumin pretreatment on plasma concentration of SASP ([5]; curcumin 40 mg/kg PO 1 h before SASP 20 mg/kg PO, FVB-WT mice, data not shown): no effect
IC50 ([1]; IC50, inhibition of ABCG2-mediated efflux of BODIPY FL prazosin, ex vivo): 19 nM
IC50 ([1]; IC50, inhibition of ABCG2 activity (luminal BODIPY FL prazosin fluorescence), 2 μM BODIPY FL prazosin, 1 h, room temperature): 19.4 nM
SMILES: COc1cc(/C=C/C(=O)CC(=O)/C=C/c2ccc(O)c(OC)c2)ccc1O [curcumin, Diferuoyl methane]
systemic bioavailability of orally administered curcumin [7]: relatively low
effect of curcumin on the levels of SASP ([6]; abcg2-/- mice, curcumin 400 mg/kg PO, 90 min after SASP 20 mg/kg PO): no significant effect; also recorded: no significant increase
progression of pancreatic cancer [8]: inhibited progression
